This is an account of results in patent publication US20260146045A1, “COMPOSITIONS AND USES THEREOF” (Solve Therapeutics, Inc., priority 2022, published 2026).

Structures are written as SMILES.

This assay relates to SKBR3, a breast cancer cell line. The assay can be described thus: in vitro cytotoxicity assay (CellTiter-Glo viability). Type of assay: cell-based. Conditions: Homo sapiens, SK-BR-3, SKBR3 cells, 72 hours at 37° C., luminometer. The protocol: The ability of compounds to inhibit cell growth was measured using in vitro cytotoxicity assay.
Cells were cultured in log phase growth and split into 96-well plates. Each cell-line was plated at a slightly different concentration but ranged from 5×10^3 to 50x 10+ cells/well. Cells, in duplicate, were incubated with 3-fold serial dilution of a particular immunoconjugate starting at 3000 or 1000 nanomolar (3000, 1000, 333, 111, 37, 12.3, 4.1, 1.37, 0.46, 0.15 nanomolar) for 72 hours at 37° C. and 5% CO2. After treatment the cells were incubated with an equal volume of CellTiter-Glo® reagent (Promega Inc.) for 15 minutes at room temperature, and viability was determined by a luminometer.
On the technique in general: In ATP-based viability assays light output follows the ATP content of the culture.
In general, EC50 refers to the concentration giving half of the maximal effect. A high value points to lower potency in that assay. For `CC[C@@]1(O)C(=O)OCc2c1cc1n(c2=O)Cc2c-1nc1cc(F)ccc1c2CNC(=O)CN` [Compound 7], the EC50 turned out to be 89 nM.
Compound `CC[C@@]1(O)C(=O)OCc2c1cc1n(c2=O)Cc2c-1nc1cc(F)ccc1c2CNC(=O)CO` [Compound 8] had an EC50 of 5.6 nM.
The same measure for `CC[C@@]1(O)C(=O)OCc2c1cc1n(c2=O)Cc2c-1nc1ccc(O)cc1c2CNC(=O)CN` [Compound 13]: 1050 nM; for `CC[C@@]1(O)C(=O)OCc2c1cc1n(c2=O)Cc2c-1nc1ccc(O)cc1c2CNC(=O)CO` [Compound 14]: 516 nM.
